15 molecules from US7423159B2, “Agent for preventing or treating neuropathy” (Takeda Pharmaceutical Company Limited, priority 2002, dated 2008) can be followed below.

Molecules are shown by their SMILES.

On to `CCc1csc(CCc2ccc(NC(=O)/C=C/c3cnn(C)c3-c3ccc(F)cc3)cc2)n1` [Example 113, (2E)-N-{4-[2-(4-Ethyl-1,3-thiazol-2-yl)ethyl]phenyl}-3-[5-(4-fluorophenyl)-1-methyl-1H-pyrazol-4-yl]acrylamide], for which the melting point fell in the range of 200 to 201 °C.

`Cn1ncc(/C=C/C(=O)Nc2ccc(C[S+]([O-])C(C)(C)C)cc2)c1-c1ccc(F)cc1` (stereo not drawn) [Example 218, (2E)-N-{4-[(tert-Butylsulfinyl)methyl]phenyl}-3-[5-(4-fluorophenyl)-1-methyl-1H-pyrazol-4-yl]acrylamide]: the melting point lay within 242 to 243 °C.

`Cn1ncc(/C=C/C(=O)Nc2ccc(S(=O)(=O)c3ccccc3)cc2)c1-c1ccc(F)cc1` [Example 206, (2E)-3-[5-(4-Fluorophenyl)-1-methyl-1H-pyrazol-4-yl]-N-[4-(phenylsulfonyl)phenyl]acrylamide] gave a melting point of 169 to 172 °C. With `Cn1ncc(/C=C/C(=O)Nc2ccc(Cn3ncc4ccccc43)cc2)c1-c1ccc(F)cc1` [Example 176, (2E)-3-[5-(4-Fluorophenyl)-1-methyl-1H-pyrazol-4-yl]-N-[4-(1H-indazol-1-ylmethyl)phenyl]acrylamide] the figure was 146 to 148 °C. With `Cn1ncc(/C=C/C(=O)Nc2ccc(Cc3n[nH]c(=O)o3)cc2)c1-c1ccc(F)cc1` [Example 86, (2E)-3-[5-(4-Fluorophenyl)-1-methyl-1H-pyrazol-4-yl]-N-{4-[(5-oxo-4,5-dihydro-1,3,4-oxadiazol-2-yl)methyl]phenyl}acrylamide] the figure was 262 to 263 °C.

For `COP(=O)(Cc1ccc(NC(=O)/C=C/c2cnn(C)c2-c2ccccc2)cc1)OC`, the melting point fell in the range of 219 to 220 °C. With `Cn1ncc(/C=C/C(=O)Nc2ccc(Cn3ncnn3)cc2)c1-c1ccc(F)cc1` [Example 198, (2E)-3-[5-(4-Fluorophenyl)-1-methyl-1H-pyrazol-4-yl]-N-[4-(2H-tetrazol-2-ylmethyl)phenyl]acrylamide] the figure was 210 to 211 °C; with `CCOP(=O)(Cc1ccc(NC(=O)/C=C/c2cnn(Cc3ccccc3)c2-c2ccc(F)cc2)cc1)OCC`, 207 to 208 °C; with `Cn1ncc(/C=C/C(=O)Nc2ccc(C(N)=O)cc2)c1-c1ccc(F)cc1` [Example 183, 4-({(2E)-3-[5-(4-Fluorophenyl)-1-methyl-1H-pyrazol-4-yl]prop-2-enoyl}amino)benzamide], 276 to 278 °C. `CCOC(=O)c1csc(Cc2ccc(NC(=O)/C=C/c3cnn(C)c3-c3ccc(F)cc3)cc2)n1` [Example 126, Ethyl 2-[4-({(2E)-3-[5-(4-fluorophenyl)-1-methyl-1H-pyrazol-4-yl]prop-2-enoyl}amino)benzyl]-1,3-thiazole-4-carboxylate] returned a melting point of 189 to 190 °C. Under `COC(=O)c1ncnn1Cc1ccc(NC(=O)/C=C/c2cnn(C)c2-c2ccc(F)cc2)cc1` [Example 164, Methyl 1-[4-({(2E)-3-[5-(4-fluorophenyl)-1-methyl-1H-pyrazol-4-yl]prop-2-enoyl}amino)benzyl]-1H-1,2,4-triazole-5-carboxylate] stands 203 to 205 °C.

`CN(C)C(=O)Cc1ccc(NC(=O)/C=C/c2cnn(C)c2-c2ccc(F)cc2)cc1` [Example 143, (2E)-N-{4-[2-(dimethylamino)-2-oxoethyl]phenyl}-3-[5-(4-fluorophenyl)-1-methyl-1H-pyrazol-4-yl]acrylamide] displayed a melting point of 209 to 210 °C.

`CCOP(=O)(Cc1ccc(NC(=O)/C=C\c2cnn(C)c2-c2ccc(OC)cc2)cc1)OCC`: the melting point lay in the range of 187 to 188 °C. With `CCOC(=O)Cc1ccc(NC(=O)CCc2cnn(-c3ccccc3)c2-c2ccccc2)cc1` [Example 81, N-[4-(Ethoxycarbonylmethyl)phenyl]-3-(1,5-diphenyl-1H-pyrazol-4-yl)propionamide] the figure was 143 to 144 °C; with `CCOP(=O)(Cc1ccc(NC(=O)/C=C/c2cnn(C)c2)cc1)OCC`, 201 to 202 °C.

In general, melting point refers to the temperature of the solid-liquid transition.
